This is an account of results in patent US7744867B2, “PTPase inhibitors and method of using same” (The Cleveland Clinic Foundation, priority 2001, dated 2010).

Molecules are shown by their SMILES.

In data set [1] the test system is NB4 cells. As to the kind of experiment: Differentiation, proliferation and cell cycle of AML cell line. Type of data set: cell-based, human. Conditions: 3 days; sodium stibogluconate 250 μg/ml, ATRA 1 μM. How it is done: Cell lines, cell culture, and cell proliferation assay. The NB4 cell line was a gift from Dr. Dan Lindner of CCF. HL60 and U937 cell lines were purchased from ATCC. These human AML cell lines were maintained in RPMI 1640 medium supplemented with 10% fetal calf serum (FCS). For cell proliferation assays, cells were cultured at 37° C. in 10% FCS medium containing various amounts of sodium stibogluconate for 6 days. The cell numbers in the cultures were determined by an MTT assay as described previously.
Differentiation of AML cell lines was assessed by their ability to produce superoxide as measured by reduction of NBT to formazan and by analysis of expression of CD11b surface marker by flow cytometry. For NBT reduction, each cell suspension was mixed with an equal volume of solution containing 1 mg/ml of NBT (Sigma) and 2.5 μg/ml of TPA for 30 minutes at 37° C. After incubation, cells containing the purple formazan deposits and cells devoid of NBT-reducing activity (white cells) in each sample were determined by counting 200 cells under microscope. We expressed the data as percentage of the following ratio: purple cells/purple+white cells. For analysis of cell surface antigens, cells were exposed to phycoerythrin (PE)−conjugated murine anti-human CD11b (DAKO corp, Carpinteria, Calif.). Analysis of fluorescence was performed on a FACScan flow cytometer (Beckton Dickinson, Mountain View, Calif.). The cell cycle was analyzed by flow cytometry after 3 days of culture of NB4 cells in the absence or presence of sodium stibogluconate (250 μg/ml) or ATRA (1 μM). Briefly, the cells were fixed in cold ethanol and incubated for 30 minutes at 4° C. in the dark with a solution of […] propidium iodide, 1 mg/ml RNase and 0.1% NP-40. Analysis was performed immediately after staining using the CELLFIT program (Becton Dickinson, Mountain View, Calif.).

The subject of data set [2] is acute promyelocytic leukemia (APL). Conditions: in vivo; cited from earlier work.
Data set [3] deals with Jak2 and Stat5 tyrosine phosphorylation. The experiment in a line: IL-3-induced Jak2/Stat5 tyrosine phosphorylation in Baf3 cells. It counts as cell-based, murine. The protocol:
For induction of cellular protein phosphorylation by sodium stibogluconate or pervanadate, Baf3 cells were incubated in 0.1% FCS RPMI 1640 medium at 37° C. for 16 hours. The cells were then washed twice in RPMI 1640 medium and incubated with sodium stibogluconate or pervanandate (0.1 mM) for various times prior to termination by lysing cells in cold lysis buffer (50 mM Tris, pH 7.4; 150 mM NaCl; 0.2 mM Na3VO4; 20 mm NaF; 1% NP40; 2 mM PMSF; 20 μg/ml of aprotinin and 1 mM of sodium molybdic acid). To determine the effect of sodium stibogluconate or potassium antimonyl tartrate on IL-3-induced Jak/Stat phosphorylation, Baf3 cells were deprived of the growth factor for 16 hours in 0.1% FCS RPMI 1640 medium and then incubated with or without sodium stibogluconate or potassium antimonyl tartrate for 10 minutes. IL-3 was next added to the cell suspension and incubated for various times. The cells were then harvested and lysed in cold lysis buffer at 4° C. for 45 minutes. Total cell lysates (TCL) were separated in SDS-PAGE gels, blotted onto nitrocellulose membrane (Schleicher & Schuell), probed with specific antibodies and detected using an enhanced chemiluminescence kit (ECL, Amersham).
A functional role of SHP-1 in dephosphorylating the Jak family kinases during cytokine signaling has been documented. To determine whether sodium stibogluconate inhibits SHP-1 in vivo, the effect of the drug on IL-3-induced Jak2 tyrosine phosphorylation in Baf3 cells was examined. Baf3 cells deprived of IL-3 were incubated with or without the drug for 10 minutes and then stimulated with IL-3 for various times. IL-3 induced tyrosine phosphorylation of Jak2 and Stat5 in Baf3 cells in the presence or absence of the drug. However, the phosphotyrosine levels of Jak2 and Stat5 in the presence of the drug were about twice of those in cells without drug treatment as determined by densitometry analysis.

In data set [4] the test system is Baf3 cells. As to the kind of experiment: IL-3-induced proliferation of Baf3 cells. Type of data set: cell-based, murine. The protocol:
The murine hematopoietic cell line Baf3 was maintained in RPMI 1640 medium supplemented with 10% fetal calf serum (FCS) and murine IL-3 (20 units/ml) as described previously. Human myeloid cell line TF-1 was maintained in RPMI 1640 supplemented with 10% FCS and 40 ng/ml of recombinant human GM-CSF as described previously. For cell proliferation assays, cells were washed in 10% FCS medium twice, resuspended in 10% FCS medium, incubated at 37° C. for 16 hours and then cultured at 37° C. in 10% FCS medium containing various amounts of cytokines, sodium stibogluconate, or PSbT for 3-6 days as indicated. The cell numbers in proliferation assays were determined by an MTT assay or by microscopic cell counting as indicated.

Data set [5] has as its target T1, PTP1B (GST fusion protein) (Homo sapiens, UniProt P18031).
T1 construct: purchased Upstate Biotechnology Inc. (UBI, Lake Placid, N.Y.)
As to the kind of experiment: In vitro PTPase assay, dephosphorylation of a synthetic phosphotyrosine peptide. Type of data set: biochemical. Particulars: at 11,000 μg/ml. The protocol: (§1) In vitro PTPase activities were measured using the commercial protein tyrosine phosphatase assay kit (UBI) following established procedure. […] 100 μl of Malachite Green solution was added and incubated for 5 minutes, and the absorbance at 660 nm was measured after 5 minutes.

The target in data set [6] is T2, GST/SHP-1 fusion protein (Mus musculus, UniProt P29351).
T2 construct: made in house
T2 sequence (P29351 whole entry, the tested form may be a part): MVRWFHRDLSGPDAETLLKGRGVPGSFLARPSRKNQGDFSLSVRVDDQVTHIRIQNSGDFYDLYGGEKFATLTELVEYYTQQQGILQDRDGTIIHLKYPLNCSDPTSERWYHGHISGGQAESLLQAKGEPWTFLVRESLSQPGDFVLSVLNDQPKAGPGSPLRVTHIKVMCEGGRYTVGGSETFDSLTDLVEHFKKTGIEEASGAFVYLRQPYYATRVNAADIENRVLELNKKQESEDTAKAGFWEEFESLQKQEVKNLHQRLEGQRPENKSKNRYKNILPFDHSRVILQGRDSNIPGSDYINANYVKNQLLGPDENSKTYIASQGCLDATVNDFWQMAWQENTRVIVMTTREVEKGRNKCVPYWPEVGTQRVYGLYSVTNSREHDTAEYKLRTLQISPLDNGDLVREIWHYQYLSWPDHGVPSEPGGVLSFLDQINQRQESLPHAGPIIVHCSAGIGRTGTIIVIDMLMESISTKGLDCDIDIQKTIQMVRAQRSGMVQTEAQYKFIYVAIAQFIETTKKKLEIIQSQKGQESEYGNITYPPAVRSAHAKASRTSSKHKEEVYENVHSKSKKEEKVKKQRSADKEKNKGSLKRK
The description is as above. It counts as biochemical. How it is done:
In vitro PTPase activities were measured using the commercial protein tyrosine phosphatase assay kit (UBI) following established procedure. This assay measures the in vitro dephosphorylation of a synthetic phosphotyrosine peptide (R-R-L-I-E-D-A-E-pY-A-A-R-G). Briefly, 0.01 μg of GST/PTPase fusion protein was incubated in 50 μl of Tris buffer (10 mM Tris, […]) at 22° C. for 10 minutes, followed by addition of 0.2 mM of the phosphotyrosine peptide and incubation at 22° C. for 18 hours. 100 μl of Malachite Green solution was added and incubated for 5 minutes, and the absorbance at 660 nm was measured after 5 minutes.

Data set [7] addresses T3, recombinant PRL-3 (Homo sapiens, UniProt O75365).
T3 construct: made in house; host or cells: E. coli DH5α
As to the kind of experiment: In vitro PTPase assay with recombinant PRL (peptide or DiFMUP substrate). Conditions: DiFMUP substrate; comparable conditions. It counts as biochemical. How it is done: as §1
Recombinant GST fusion proteins of human PRL-1, 2 and 3 phosphatases were purified with glutathione beads from DH5α bacteria transformed by pGEX vectors containing cDNA fragments encoding the human PRLs which were generated by RT-PCR from H9 cells and confirmed by sequence analysis. Activities of the purified recombinant PRL proteins in dephosphorylating DiFMUP in the absence or presence of various inhibitors were measured following established procedure.
To assess whether sodium stibogluconate is an inhibitor of oncogenic PRL phosphatases, its effects on the PTPase activity of recombinant PRLs were evaluated by in vitro PTPase assays.

The target in data set [8] is T2, GST/SHP-1 fusion protein. The experiment in a line: Reversibility of SHP-1 inhibition (washing of bead-bound GST/SHP-1). It counts as biochemical. Conditions: preincubated with inhibitor, then washed. The text has this: The beads were then washed 3 times in Tris buffer or without washing prior to in vitro PTPase assays.
Data set [9] concerns PTPases. As to the kind of experiment: PTPase inhibition in vitro by ketoconazole. Type of data set: biochemical.

T3 sequence (O75365 whole entry): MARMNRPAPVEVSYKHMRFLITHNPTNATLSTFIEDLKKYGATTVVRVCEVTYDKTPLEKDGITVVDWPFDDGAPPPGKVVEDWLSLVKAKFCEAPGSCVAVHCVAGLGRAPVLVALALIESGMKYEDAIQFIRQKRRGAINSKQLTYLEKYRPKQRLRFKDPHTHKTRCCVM
T1 sequence (P18031 whole entry, species assumed, the tested form may be a part): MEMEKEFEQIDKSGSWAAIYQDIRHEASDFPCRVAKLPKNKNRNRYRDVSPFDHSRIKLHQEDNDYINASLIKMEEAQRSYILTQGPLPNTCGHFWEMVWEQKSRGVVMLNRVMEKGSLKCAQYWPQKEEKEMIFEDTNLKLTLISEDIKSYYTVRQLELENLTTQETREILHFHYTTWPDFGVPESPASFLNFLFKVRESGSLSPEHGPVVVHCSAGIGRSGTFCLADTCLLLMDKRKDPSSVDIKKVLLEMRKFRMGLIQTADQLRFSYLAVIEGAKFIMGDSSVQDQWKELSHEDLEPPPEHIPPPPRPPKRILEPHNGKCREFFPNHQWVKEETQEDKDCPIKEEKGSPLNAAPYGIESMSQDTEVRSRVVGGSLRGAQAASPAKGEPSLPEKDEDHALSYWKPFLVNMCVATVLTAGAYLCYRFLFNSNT

On to `CC1=C(/C=C/C(C)=C/C=C/C(C)=C/C(=O)O)C(C)(C)CCC1` [ATRA, all-trans-retinoic acid], for which, in [1], the “cell cycle arrest (DNA content analysis)” value is reported as “arrested at G1 phase”. Moreover, the “long term APL-free survival” value in [2] is given as “exceeding 75%”.
For the compound `O.O.O.O=C([O-])[C@H]([O-])[C@@H]([O-])C(=O)[O-].O=C([O-])[C@H]([O-])[C@@H]([O-])C(=O)[O-].[K+].[K+].[Sb+3].[Sb+3]` [PSbT, potassium antimonyl tartrate], the “IL-3-induced Stat5 phosphorylation” value in data set [3] is given as “failed to enhance”. In data set [4], the “IL-3-induced proliferation of Baf3 cells” value is on record as “failed to enhance” and the “toxicity against Baf3 cells” value is given as “marked toxicity”. Also, the “inhibition of PTP1B” value in data set [5] is on record as “no detectable inhibition”. For the same compound, the “inhibition of SHP-1” value in data set [6] (at 11,000 μg/ml) is recorded as “no detectable inhibition”.
Regarding `Cc1ccc(C(=O)Nc2ccc(S(=O)(=O)O)c3cc(S(=O)(=O)O)cc(S(=O)(=O)O)c23)cc1NC(=O)c1cccc(NC(=O)Nc2cccc(C(=O)Nc3cc(C(=O)Nc4ccc(S(=O)(=O)O)c5cc(S(=O)(=O)O)cc(S(=O)(=O)O)c45)ccc3C)c2)c1` [suramin], the “inhibition of SHP-1 compared with sodium stibogluconate” value in data set [6] (under comparable conditions) was “less effective”. In addition, the “inhibition of PRL-3 compared with sodium stibogluconate” value in data set [7] is recorded as “less effective”. Further, the “reversibility of SHP-1 inhibition” value in data set [8] is recorded as “reversible”.
Consider `[Na+].[Na+].[Na+].[O]=[V]([O-])([O-])[O-]` [sodium orthovanadate], for which, in [7], the “inhibition of PRL-3 compared with sodium stibogluconate” value is listed as “less effective”.
Take `CC(=O)N1CCN(c2ccc(OCC3COC(Cn4ccnc4)(c4ccc(Cl)cc4Cl)O3)cc2)CC1` (stereo not drawn) [ketoconazole]: in data set [9], the “PTPase inhibition in vitro” value is recorded as “inhibits different PTPases”.
